# pKi: −log10 of the molar value.
# Experiments:
# [1] = tested on: Kp C3 KPC-3; assay: MIC of meropenem with or without DMSA or MSA (negative control strain, non-metallo carbapenemase KPC); assay type: cell-based, K. pneumoniae; conditions: Klebsiella pneumoniae, C3KPC3; Kp C3 KPC-3 (negative control); without DMSA or MSA
# Description: (§1) MICs of meropenem with of without DMSA or MSA Table 3
# (§2) DMSA and MSA were used at a concentration of 3 mM each. A negative control was used as strain KpC3 producing the non- metallo carbapenemase KPC
# [2] = tested on: E. coli VIM KOW7; assay: MIC of meropenem with or without DMSA or MSA; assay type: cell-based; conditions: Escherichia coli, VIMKOW7, without DMSA or MSA
# Description: (§3) DMSA reduced the MICs of ertapenem for bacteria producing NDM-1 though the synergy effect was weaker than that observed for bacteria producing IMP and VIM-type MBLs.
# as §1, §2
# [3] = tested on: E. coli NDM FEK; assay: MIC of meropenem with or without DMSA or MSA; assay type: cell-based; conditions: Escherichia coli, without DMSA or MSA
# Description: as §3, §1, §2
# [4] = tested on: E. coli NDM pCR2.1; assay: MIC of meropenem with or without DMSA or MSA; assay type: cell-based; conditions: Escherichia coli, NDMPCR2.1, read-out: MIC of meropenem
# Description: as §3, §1, §2
# [5] = tested on: E. coli NDM CHAN; assay: MIC of meropenem with or without DMSA or MSA; assay type: cell-based; conditions: Escherichia coli, without DMSA or MSA
# Description: as §3, §1, §2
# [6] = tested on: Kp VIM KOW1; assay: MIC of meropenem with or without DMSA or MSA; assay type: cell-based, K. pneumoniae; conditions: Klebsiella pneumoniae, VIMKOW1, without DMSA or MSA
# Description: as §1, §2
# [7] = tested on: Kp NDM IND; assay: MIC of meropenem with or without DMSA or MSA; assay type: cell-based, K. pneumoniae; conditions: Klebsiella pneumoniae, without DMSA or MSA
# Description: as §1, §2
# [8] = tested on: Kp NDM KIE; assay: MIC of meropenem with or without DMSA or MSA; assay type: cell-based, K. pneumoniae; conditions: Klebsiella pneumoniae, without DMSA or MSA
# Description: as §1, §2
# [9] = biological target: T1, NDM-1 (Klebsiella pneumoniae, UniProt C7C422); conditions: affinity for NDM-1; cited from earlier work
# T1 construct: made in house
# T1 sequence (C7C422 29-270, looked up): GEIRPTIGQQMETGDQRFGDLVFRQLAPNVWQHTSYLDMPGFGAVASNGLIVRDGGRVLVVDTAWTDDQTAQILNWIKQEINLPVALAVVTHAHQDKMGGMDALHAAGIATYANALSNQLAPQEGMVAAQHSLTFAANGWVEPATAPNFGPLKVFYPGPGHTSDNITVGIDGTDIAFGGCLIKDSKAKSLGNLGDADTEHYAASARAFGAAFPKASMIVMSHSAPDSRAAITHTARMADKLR
Structure (SMILES),MIC [1] [µg/mL],MIC [2] [µg/mL],MIC [3] [µg/mL],MIC [4] [µg/mL],MIC [5] [µg/mL],MIC [6] [µg/mL],MIC [7] [µg/mL],MIC [8] [µg/mL],pKi [9]
C[C@@H](O)[C@H]1C(=O)N2C(C(=O)O)=C(S[C@@H]3CN[C@H](C(=O)N(C)C)C3)[C@H](C)[C@H]12 [meropenem],> 32,0.5,6,> 32,3,> 32,4,4,
CC/C(C(=O)O)=C(\CC)C(=O)O [ME1071],,,,,,,,,1.62
